Data reported in PubChem BioAssay AID2060905 (Molecular Pharmacology Branch, DTP, NCI, 2025).

Test system: 282377-053-R-J1-PDC complex spheroid viability
Assay: Anticancer human tumor 282377-053-R-J1-PDC patient-derived colon adenocarcinoma cell line growth inhibition [RAS]
Conditions: for IC50: curve of first compound; for viability, T/C: stronger effect = lower value
Outline: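 Agents were tested in combination matrices in half-log decrements from a top concentration at or near clinical Cmax (10 microM if undetermined). Targets were multi-cell spheroids of tumour lines plus HUVEC and MSC stromal cells.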

[1] = second compound 0.0316 µM, first compound 0.0316 µM
[2] = second compound 0.0316 µM, first compound 0.1 µM
[3] = second compound 0.0316 µM, first compound 0.316 µM
[4] = second compound 0.0316 µM, first compound 1 µM
[5] = second compound 0.0316 µM, first compound 3.16 µM
[6] = second compound 0.0316 µM, first compound 10 µM
[7] = second compound 0.1 µM, first compound 0.0316 µM
[8] = second compound 0.1 µM, first compound 0.1 µM
[9] = second compound 0.1 µM, first compound 0.316 µM
[10] = second compound 0.1 µM, first compound 1 µM
[11] = second compound 0.1 µM, first compound 3.16 µM
[12] = second compound 0.1 µM, first compound 10 µM
[13] = second compound 0.316 µM, first compound 0.0316 µM
[14] = second compound 0.316 µM, first compound 0.1 µM
[15] = second compound 0.316 µM, first compound 0.316 µM
[16] = second compound 0.316 µM, first compound 1 µM
[17] = second compound 0.316 µM, first compound 3.16 µM
[18] = second compound 0.316 µM, first compound 10 µM
[19] = second compound 1 µM, first compound 0.0316 µM
[20] = second compound 1 µM, first compound 0.1 µM
[21] = second compound 1 µM, first compound 0.316 µM
[22] = second compound 1 µM, first compound 1 µM
[23] = second compound 1 µM, first compound 3.16 µM
[24] = second compound 1 µM, first compound 10 µM
[25] = second compound 3.16 µM, first compound 0.0316 µM
[26] = second compound 3.16 µM, first compound 0.1 µM
[27] = second compound 3.16 µM, first compound 0.316 µM
[28] = second compound 3.16 µM, first compound 1 µM
[29] = second compound 3.16 µM, first compound 3.16 µM
[30] = second compound 3.16 µM, first compound 10 µM
[31] = second compound 10 µM, first compound 0.0316 µM
[32] = second compound 10 µM, first compound 0.1 µM
[33] = second compound 10 µM, first compound 0.316 µM
[34] = second compound 10 µM, first compound 1 µM
[35] = second compound 10 µM, first compound 3.16 µM
[36] = second compound 10 µM, first compound 10 µM
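Further: spheroids exposed to agents for seven days before readout.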
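Wherever viability, T/C is given: luminescence viability as percent of DMSO vehicle control wells.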

## CC(C)NCC(C(=O)N1CCN(c2ncnc3c2C(C)CC3O)CC1)c1ccc(Cl)cc1 (stereo unspecified) + C#Cc1c(F)ccc2cc(O)cc(-c3ncc4c(N5CC6CCC(C5)N6)nc(OCC56CCCN5CC(F)C6)nc4c3F)c12
Second compound 0.0316 µM
  IC50: > 10000 nM
Second compound 0.1 µM
  IC50: > 10000 nM
Second compound 0.316 µM
  IC50: > 10000 nM
Second compound 1 µM
  IC50: > 10000 nM
Second compound 3.16 µM
  IC50: > 10000 nM
Second compound 10 µM
  IC50: > 10000 nM
[1]
  viability, T/C: 133%
[2]
  viability, T/C: 111%
[3]
  viability, T/C: 88.9%
[4]
  viability, T/C: 94.6%
[5]
  viability, T/C: 84.1%
[6]
  viability, T/C: 82.3%
[7]
  viability, T/C: 88.5%
[8]
  viability, T/C: 86.5%
[9]
  viability, T/C: 76.9%
[10]
  viability, T/C: 90.3%
[11]
  viability, T/C: 83.5%
[12]
  viability, T/C: 72.2%
[13]
  viability, T/C: 104%
[14]
  viability, T/C: 110%
[15]
  viability, T/C: 92.8%
[16]
  viability, T/C: 83%
[17]
  viability, T/C: 85.9%
[18]
  viability, T/C: 85.3%
[19]
  viability, T/C: 105%
[20]
  viability, T/C: 79.8%
[21]
  viability, T/C: 89.2%
[22]
  viability, T/C: 82.5%
[23]
  viability, T/C: 63.7%
[24]
  viability, T/C: 69.5%
[25]
  viability, T/C: 98.5%
[26]
  viability, T/C: 96.7%
[27]
  viability, T/C: 81.4%
[28]
  viability, T/C: 77.7%
[29]
  viability, T/C: 92.1%
[30]
  viability, T/C: 70.4%
[31]
  viability, T/C: 83%
[32]
  viability, T/C: 87.7%
[33]
  viability, T/C: 88.9%
[34]
  viability, T/C: 91.4%
[35]
  viability, T/C: 86.4%
[36]
  viability, T/C: 72.4%

## CC(=O)OC12COC1CC(O)C1(C)C(=O)C(O)C3=C(C)C(OC(=O)C(O)C(NC(=O)OC(C)(C)C)c4ccccc4)CC(O)(C(OC(=O)c4ccccc4)C21)C3(C)C (stereo unspecified) + C#Cc1c(F)ccc2cc(O)cc(-c3ncc4c(N5CC6CCC(C5)N6)nc(OCC56CCCN5CC(F)C6)nc4c3F)c12
Second compound 0.0316 µM
  IC50: < 31.6 nM
Second compound 0.1 µM
  IC50: < 31.6 nM
Second compound 0.316 µM
  IC50: < 31.6 nM
Second compound 1 µM
  IC50: < 31.6 nM
Second compound 3.16 µM
  IC50: < 31.6 nM
Second compound 10 µM
  IC50: < 31.6 nM
[1]
  viability, T/C: 21.9%
[2]
  viability, T/C: 20.5%
[3]
  viability, T/C: 23.9%
[4]
  viability, T/C: 29.7%
[5]
  viability, T/C: 43.1%
[6]
  viability, T/C: 52.1%
[7]
  viability, T/C: 25.4%
[8]
  viability, T/C: 23.1%
[9]
  viability, T/C: 23.4%
[10]
  viability, T/C: 28.7%
[11]
  viability, T/C: 49.8%
[12]
  viability, T/C: 69.4%
[13]
  viability, T/C: 28.6%
[14]
  viability, T/C: 24.7%
[15]
  viability, T/C: 26.7%
[16]
  viability, T/C: 30.2%
[17]
  viability, T/C: 47.4%
[18]
  viability, T/C: 67.2%
[19]
  viability, T/C: 32.6%
[20]
  viability, T/C: 25%
[21]
  viability, T/C: 26.6%
[22]
  viability, T/C: 33%
[23]
  viability, T/C: 60.6%
[24]
  viability, T/C: 61.5%
[25]
  viability, T/C: 27.9%
[26]
  viability, T/C: 29.2%
[27]
  viability, T/C: 31.4%
[28]
  viability, T/C: 39.6%
[29]
  viability, T/C: 58.5%
[30]
  viability, T/C: 66%
[31]
  viability, T/C: 32.1%
[32]
  viability, T/C: 31.8%
[33]
  viability, T/C: 41.6%
[34]
  viability, T/C: 49.3%
[35]
  viability, T/C: 77.7%
[36]
  viability, T/C: 78.7%

## CC1(C)CCC(Nc2ncc(C(F)(F)F)c(-c3c[nH]c4c(P(C)(C)=O)c(C#N)ccc34)n2)CN1 (stereo unspecified) + C=CC(=O)N1CCN(c2nc(OCC3CCCN3C)nc3c(F)c(-c4nc(N)cc(C)c4C(F)(F)F)c(Cl)cc23)C(C)C1
Second compound 0.00316 µM
  IC50: > 300 nM
Second compound 0.01 µM
  IC50: > 300 nM
Second compound 0.0316 µM
  IC50: > 300 nM
Second compound 0.1 µM
  IC50: > 300 nM
Second compound 0.316 µM
  IC50: > 300 nM
Second compound 1 µM
  IC50: > 300 nM
Second compound 0.00316 µM, first compound 0.000949 µM
  viability, T/C: 114%
Second compound 0.00316 µM, first compound 0.003 µM
  viability, T/C: 120%
Second compound 0.00316 µM, first compound 0.00949 µM
  viability, T/C: 79.9%
Second compound 0.00316 µM, first compound 0.03 µM
  viability, T/C: 51.3%
Second compound 0.00316 µM, first compound 0.0949 µM
  viability, T/C: 61.1%
Second compound 0.00316 µM, first compound 0.3 µM
  viability, T/C: 55.6%
Second compound 0.01 µM, first compound 0.000949 µM
  viability, T/C: 123%
Second compound 0.01 µM, first compound 0.003 µM
  viability, T/C: 88.7%
Second compound 0.01 µM, first compound 0.00949 µM
  viability, T/C: 85.1%
Second compound 0.01 µM, first compound 0.03 µM
  viability, T/C: 64.5%
Second compound 0.01 µM, first compound 0.0949 µM
  viability, T/C: 58.8%
Second compound 0.01 µM, first compound 0.3 µM
  viability, T/C: 56.1%
Second compound 0.0316 µM, first compound 0.000949 µM
  viability, T/C: 91.7%
Second compound 0.0316 µM, first compound 0.003 µM
  viability, T/C: 90.8%
Second compound 0.0316 µM, first compound 0.00949 µM
  viability, T/C: 72.3%
Second compound 0.0316 µM, first compound 0.03 µM
  viability, T/C: 59.6%
Second compound 0.0316 µM, first compound 0.0949 µM
  viability, T/C: 64.8%
Second compound 0.0316 µM, first compound 0.3 µM
  viability, T/C: 56.1%
Second compound 0.1 µM, first compound 0.000949 µM
  viability, T/C: 105%
Second compound 0.1 µM, first compound 0.003 µM
  viability, T/C: 101%
Second compound 0.1 µM, first compound 0.00949 µM
  viability, T/C: 91.3%
Second compound 0.1 µM, first compound 0.03 µM
  viability, T/C: 66.3%
Second compound 0.1 µM, first compound 0.0949 µM
  viability, T/C: 73.1%
Second compound 0.1 µM, first compound 0.3 µM
  viability, T/C: 61.8%
Second compound 0.316 µM, first compound 0.000949 µM
  viability, T/C: 90.2%
Second compound 0.316 µM, first compound 0.003 µM
  viability, T/C: 102%
Second compound 0.316 µM, first compound 0.00949 µM
  viability, T/C: 87.9%
Second compound 0.316 µM, first compound 0.03 µM
  viability, T/C: 65.1%
Second compound 0.316 µM, first compound 0.0949 µM
  viability, T/C: 58.5%
Second compound 0.316 µM, first compound 0.3 µM
  viability, T/C: 67.1%
Second compound 1 µM, first compound 0.000949 µM
  viability, T/C: 92.9%
Second compound 1 µM, first compound 0.003 µM
  viability, T/C: 112%
Second compound 1 µM, first compound 0.00949 µM
  viability, T/C: 86.8%
Second compound 1 µM, first compound 0.03 µM
  viability, T/C: 61.6%
Second compound 1 µM, first compound 0.0949 µM
  viability, T/C: 67%
Second compound 1 µM, first compound 0.3 µM
  viability, T/C: 71.8%
